Experimental data published in patent publication US20100292214A1, “Compounds with Antiparasitic Activity, Applications thereof to the Treatment of Infectious Diseases Caused by Apicomplexans” (commissariat a l'Energie Atomique, priority 2007, published 2010).
Where a name gives a salt, the structure may show the parent alone. Read-outs that look alike come from different tables or passages of the source.

Columns and labels:
[1] = test system: Toxoplasma gondii RH-β1 strain; test: microbe, parasite or virus in culture; assay type: cell-based; details: Toxoplasma gondii, read-out: IC50 assessed on Toxoplama Gondii
[2] = test system: asynchronous 3D7 chloroquine-sensitive P. falciparum infected red blood cells; test: Labeled hypoxanthine incorporation assay (in vitro anti-malarial activity); assay type: cell-based; details: Plasmodium falciparum, 3D7, Erythrocyte, read-out: IC50 assessed on Plasmodium Falciparum
[3] = 3D7 chloroquine-sensitive strain, infected RBC, 48 h contact, [3H]-hypoxanthine incorporation, two independent experiments in duplicates

With `C[C@@H](COC(=O)N1CCC(n2c(=O)[nH]c3ccccc32)CC1)N(Cc1ccccc1)Cc1cccc(OCc2ccccc2)c1` [Compound 136, (S)-2-(benzyl(3-(benzyloxy)benzyl)amino)propyl 4-(2-oxo-2,3-dihydro-1H-benzo[d]imidazol-1-yl)piperidine-1-carboxylate hydrochloride] as the compound, how does the IC50 [1] read?
The IC50 was 800 nM.

And the IC50 [2, 3]?
The IC50 was 1600 nM.

`O=C(OC[C@H](Cc1ccccc1)N(Cc1ccccc1)Cc1ccccc1)N1CCC(n2c(=O)[nH]c3ccccc32)CC1` [Compound 26, (S)-2-(dibenzylamino)-3-phenylpropyl 4-(1,2-dihydro-2-oxobenzo[d]imidazol-3-yl)piperidine-1-carboxylate] was tested. Which IC50 [1] did it give?
Its IC50 is 4800 nM.

And the IC50 [2, 3]?
Its IC50 is 1400 nM.

How did the IC50 [1] turn out when `C[C@@H](COC(=O)N1CCC(Nc2ccc(Cl)c(Cl)c2)CC1)N(Cc1ccccc1)Cc1ccccc1` [Compound 86, (S)-2-(dibenzylamino)propyl 4-(3,4-dichlorophenylamino)piperidine-1-carboxylate] was run?
Its IC50 is 3750 nM.

What about the IC50 [2] of the same compound?
Its IC50 is 7250 nM.

With `COc1cccc(CN(Cc2ccccc2)[C@@H](C)COC(=O)N2CCC(n3c(=O)[nH]c4ccccc43)CC2)c1` [Compound 126, (S)-2-(benzyl(3-methoxybenzyl)amino)propyl 4-(2-oxo-2,3-dihydro-1H-benzo[d]imidazol-1-yl)piperidine-1-carboxylate hydrochloride] as the compound, how does the IC50 [1] read?
Its IC50 is 3750 nM.

And the IC50 [2, 3]?
The IC50 was 3980 nM.

`CC(C)C[C@@H](COC(=O)N1CCC(n2c(=O)[nH]c3ccccc32)CC1)N(Cc1ccccc1)Cc1ccccc1` [Compound 108, (S)-2-(dibenzylamino)-4-methylpentyl 4-(1,2-dihydro-2-oxobenzo[d]imidazol-3-yl)piperidine-1-carboxylate] was tested. Which IC50 [1] did it give?
The IC50 was 3750 nM.

And the IC50 [2, 3]?
Its IC50 is 2610 nM.

How did the IC50 [1] turn out when `CC(C)C[C@@H](COC(=O)N1CCC(n2c(=O)[nH]c3ccccc32)CC1)N(Cc1ccccc1)C(=O)OC(C)(C)C` [Compound 105, (S)-2-(benzyl(tert-butoxycarbonyl)amino)-4-methylpentyl 4-(2-oxo-2,3-dihydro-1H-benzo[d]imidazol-1-yl)piperidine-1-carboxylate] was run?
The IC50 was 2200 nM.

And the IC50 [2, 3]?
Its IC50 is 1420 nM.

Which IC50 [1] does the source give for `C[C@@H](COC(=O)N1CCC(Nc2ccc(I)cc2)CC1)N(Cc1ccccc1)Cc1ccccc1` [Compound 85, (S)-2-(dibenzylamino)propyl 4-(4-iodophenylamino)piperidine-1-carboxylate] here?
Its IC50 is 7650 nM.

And the IC50 [2]?
Its IC50 is 8090 nM.

With `C[C@@H](COC(=O)N1CCC(n2c(-c3ccccc3)nc3ccccc32)CC1)N(Cc1ccccc1)Cc1ccccc1` [Compound 153, (S)-2-(dibenzylamino)propyl 4-(2-phenyl-1H-benzo[d]imidazol-1-yl)piperidine-1-carboxylate] as the compound, how does the IC50 [1] read?
Its IC50 is 3750 nM.

And the IC50 [2, 3]?
Its IC50 is 2330 nM.

For `C[C@@H](COC(=O)N1CCC(n2c(=O)[nH]c3ccccc32)CC1)N(Cc1ccccc1)Cc1ccccn1` [Compound 140, (S)-2-(benzyl(pyridin-2-ylmethyl)amino)propyl 4-(2-oxo-2,3-dihydro-1H-benzo[d]imidazol-1-yl)piperidine-1-carboxylate hydrochloride], which IC50 [1] is on record?
The IC50 was 1800 nM.

And the IC50 [2, 3]?
The IC50 was 3860 nM.

What does the source list for `C[C@@H](COC(=O)N1CCC(n2c(=O)n(S(C)(=O)=O)c3ccccc32)CC1)N(Cc1ccccc1)Cc1ccccc1` [Compound 62, (S)-2-(dibenzylamino)propyl 4-(2-oxo-3-methylsulfonyl-2,3-dihydro-1H-benzo[d]imidazol-1-yl)piperidine-1-carboxylate]?
IC50 [1]: 1980 nM; IC50 [2, 3]: 1600 nM

Which IC50 [1] does the source give for `C[C@@H](COC(=O)N1CCC(N(c2ccccc2)S(=O)(=O)c2cccc3c(N(C)C)cccc23)CC1)N(Cc1ccccc1)Cc1ccccc1` [Compound 172, (S)-2-(dibenzylamino)propyl 4-(N-phenyl-(5-dimethylamino)naphthalen-1-ylsulfonamido)piperidine-1-carboxylate] here?
Its IC50 is 212 nM.

What about the IC50 [2, 3] of the same compound?
Its IC50 is 314 nM.

`O=c1[nH]c2ccccc2n1C1CCN(CCN(Cc2ccccc2)Cc2ccccc2)CC1` [Compound 52, 1-(1-(2-(dibenzylamino)ethyl)piperidin-4-yl)-1H-benzo[d]imidazol-2(3H)-one] was tested. Which IC50 [1] did it give?
Its IC50 is 2000 nM.

And the IC50 [2, 3]?
Its IC50 is 1570 nM.
